Experimental data from ChEMBL document CHEMBL1201862, “PubChem BioAssay data set” (2004).
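Five compound concentrations were applied to cells in 96-well plates for 48 hours; endpoints were derived by simple linear interpolation of the resulting dose-response curve. GI50 marks 50% less growth.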 Active and inactive are the calls of the source. No stated cut-off is given here; in the data, active = GI50 up to about 1.1 µM and inactive = higher.

How the values were obtained:
Test in all cases: DTP human tumour cell line panel, 48 h
OVCAR-8 = test system: OVCAR-8
SK-OV-3 = test system: SK-OV-3
COLO 205 = test system: COLO 205
SN12C = test system: SN12C
SK-MEL-2 = test system: SK-MEL-2
OVCAR-5 = test system: OVCAR-5
HCT-15 = test system: HCT-15
SNB-19 = test system: SNB-19
SK-MEL-5 = test system: SK-MEL-5
UACC-62 = test system: UACC-62
HOP-62 = test system: HOP-62
A549 = test system: A549
SF-295 = test system: SF-295
SF-539 = test system: SF-539
LOX IMVI = test system: LOX IMVI
U-251 = test system: U-251
KM-20L2 = test system: KM-20L2
SW-620 = test system: SW-620
HOP-18 = test system: HOP-18
HCC 2998 = test system: HCC 2998
DMS-273 = test system: DMS-273
786-0 = test system: 786-0
K562 = test system: K562
IGROV-1 = test system: IGROV-1
MOLT-4 = test system: MOLT-4
A498 = test system: A498
XF498 = test system: XF498
NCI-H23 = test system: NCI-H23
NCI-H226 = test system: NCI-H226
RPMI-8226 = test system: RPMI-8226
EKVX = test system: EKVX
NCI-H522 = test system: NCI-H522
UACC-257 = test system: UACC-257
HL-60 = test system: HL-60
M19-MEL = test system: M19-MEL
HT-29 = test system: HT-29
TK-10 = test system: TK-10
SF-268 = test system: SF-268
DLD-1 = test system: DLD-1
Malme-3M = test system: Malme-3M
ACHN = test system: ACHN
M14 = test system: M14
SK-MEL-28 = test system: SK-MEL-28
NCI-H460 = test system: NCI-H460
HCT-116 = test system: HCT-116
OVCAR-4 = test system: OVCAR-4
SNB-78 = test system: SNB-78
SNB-75 = test system: SNB-75
KM12 = test system: KM12
CCRF-CEM = test system: CCRF-CEM
DMS-114 = test system: DMS-114
HOP-92 = test system: HOP-92
OVCAR-3 = test system: OVCAR-3
SR = test system: SR
CAKI-1 = test system: CAKI-1

With `On1c(-c2ccccc2)c(-c2ccccc2N2CCCC2)c2ccccc21` the GI50 (OVCAR-8) was > 100 µM (inactive), the GI50 (SK-OV-3) was > 100 µM (inactive) and the GI50 (COLO 205) was > 100 µM (inactive). For the same compound, the GI50 (SN12C) was > 100 µM (inactive), the GI50 (SK-MEL-2) was > 100 µM (inactive) and the GI50 (OVCAR-5) was > 100 µM (inactive). For the same compound, the GI50 (HCT-15) was over 100 µM, the GI50 (SNB-19) was > 100 µM (inactive) and the GI50 (SK-MEL-5) was > 100 µM (inactive). The GI50 (UACC-62) was > 100 µM (inactive), the GI50 (HOP-62) was > 100 µM (inactive) and the GI50 (A549) was > 100 µM (inactive). The GI50 (SF-295) was > 100 µM (inactive), the GI50 (SF-539) was > 100 µM (inactive) and the GI50 (LOX IMVI) was > 100 µM (inactive). The GI50 (U-251) was > 100 µM (inactive), the GI50 (KM-20L2) was > 100 µM (inactive) and the GI50 (SW-620) was > 100 µM (inactive). The GI50 (HOP-18) was > 100 µM (inactive), the GI50 (HCC 2998) was > 100 µM (inactive) and the GI50 (DMS-273) was > 100 µM (inactive). For the same compound, the GI50 (786-0) was > 100 µM (inactive), the GI50 (K562) was > 100 µM (inactive) and the GI50 (IGROV-1) was > 100 µM (inactive). For the same compound, the GI50 (MOLT-4) was > 100 µM (inactive), the GI50 (A498) was > 100 µM (inactive) and the GI50 (XF498) was > 100 µM (inactive). For the same compound, the GI50 (NCI-H23) was > 100 µM (inactive), the GI50 (NCI-H226) was > 100 µM (inactive) and the GI50 (RPMI-8226) was > 100 µM (inactive). The GI50 (EKVX) was > 100 µM (inactive), the GI50 (NCI-H522) was > 100 µM (inactive) and the GI50 (UACC-257) was > 100 µM (inactive). For the same compound, the GI50 (HL-60) was > 100 µM (inactive), the GI50 (M19-MEL) was > 100 µM (inactive) and the GI50 (HT-29) was > 100 µM (inactive). The GI50 (TK-10) was > 100 µM (inactive), the GI50 (SF-268) was > 100 µM (inactive) and the GI50 (DLD-1) was > 100 µM (inactive). For the same compound, the GI50 (Malme-3M) was > 100 µM (inactive), the GI50 (ACHN) was > 100 µM (inactive) and the GI50 (M14) was > 100 µM (inactive). The GI50 (SK-MEL-28) was > 100 µM (inactive), the GI50 (NCI-H460) was > 100 µM (inactive) and the GI50 (HCT-116) was > 100 µM (inactive). The GI50 (OVCAR-4) was > 100 µM (inactive), the GI50 (SNB-78) was > 100 µM (inactive) and the GI50 (SNB-75) was > 100 µM (inactive). For the same compound, the GI50 (KM12) was > 100 µM (inactive), the GI50 (CCRF-CEM) was > 100 µM (inactive) and the GI50 (DMS-114) was 47.2 µM (inactive). For the same compound, the GI50 (HOP-92) was > 100 µM (inactive), the GI50 (OVCAR-3) was > 100 µM (inactive) and the GI50 (SR) was > 100 µM (inactive). For the same compound, the GI50 (CAKI-1) was > 100 µM (inactive).
